Like-named read-outs stand apart in the source and are kept apart here.
Experiments:
[1] = biological target: T1, clone hp78a (human 5-HT4B receptor) (Homo sapiens, UniProt P34969); experiment: Competition of [3H]5-HT binding to membranes of cells transiently expressing clone hp78a
human 5-HT4B receptor = human 5-HT4B receptor (Homo sapiens, UniProt P34969); experiment: cAMP formation in intact Cos-7 cells transiently expressing the receptor; conditions: for inhibition at 10 µM: COS-7, read-out: % INHIBITION OF 5-HT RESPONSE
[2] = biological target: T1, clone hp78a (human 5-HT4B receptor); experiment: [3H]5-HT saturation binding to membranes of transiently transfected Cos-7 cells; conditions: 100 μM Gpp(NH)p; membranes from transient transfectants
[3] = read-out: Apparent dissociation constant Ki
[4] = 5 nM [3H]5-HT, 30 min at 37° C., mean ± S.E.M.
[5] = Apparent dissociation constant Ki
[6] = Apparent dissociation constant Ki, 5 nM [3H]5-HT, seven concentrations of competitor, 30 min at 37° C., Cheng-Prusoff, mean ± S.E.M. from 2-3 determinations
[7] = competitor 100 nM, 5 nM [3H]5-HT, 30 min at 37° C.

Sequence of human 5-HT4B receptor (P34969 1-445 isoform P34969-2): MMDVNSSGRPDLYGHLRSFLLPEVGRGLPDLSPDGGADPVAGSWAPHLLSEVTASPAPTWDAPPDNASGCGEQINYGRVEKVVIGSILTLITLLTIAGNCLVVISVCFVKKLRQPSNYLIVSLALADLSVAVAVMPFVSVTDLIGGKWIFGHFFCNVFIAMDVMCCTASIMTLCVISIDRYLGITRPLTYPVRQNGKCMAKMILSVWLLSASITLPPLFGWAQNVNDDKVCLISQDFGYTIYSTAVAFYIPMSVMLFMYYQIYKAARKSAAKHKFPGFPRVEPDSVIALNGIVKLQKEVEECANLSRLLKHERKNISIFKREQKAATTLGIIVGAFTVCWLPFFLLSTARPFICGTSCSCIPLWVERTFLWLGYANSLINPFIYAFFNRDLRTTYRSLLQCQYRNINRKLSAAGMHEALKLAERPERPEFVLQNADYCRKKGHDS
T1 sequence (P34969 1-445 isoform P34969-2): as above

SMILES: CC(C)NCC(O)COc1cccc2[nH]ccc12 (racemic) [Pindolol]
- PERCENT INHIBITION of specific [3H]5-HT binding [1]: 11%

SMILES: c1ccc2c(N3CCNCC3)cccc2c1 [1-NP, 1-naphthylpiperazine]
- PERCENT INHIBITION of specific [3H]5-HT binding [1]: 44%

SMILES: CCN(CC)C(=O)[C@@H]1C=C2c3cccc4[nH]c(Br)c(c34)C[C@H]2N(C)C1 [2-Br-LSD]
- FOLD cAMP STIMULATION relative to basal levels (human 5-HT4B receptor; drug 1 μM, intact Cos-7 cells): 0 fold
- Hill coefficient nH [1]: 1.02 ± 0.16
- Ki [1, 3]: 39 ± 7 nM

SMILES: Cc1[nH]c2ccc(O)cc2c1CCN [2-Me-5-HT]
- PERCENT INHIBITION of specific [3H]5-HT binding [1]: 7%

SMILES: NCCc1c[nH]c2ccc(O)cc12 [5-HT, 5-hydroxytryptamine]
- inhibition of basal or FSK-stimulated cAMP release (human 5-HT4B receptor; 5-HT 1 μM, transfected Cos-7 cells): not observed
- increase in cAMP release over basal levels (human 5-HT4B receptor; discussion statement): 20 fold
- Ki in binding assays higher affinity than EC50 in functional assays (human 5-HT4B receptor; ratio of EC50 to Ki): approximately 100 fold
- Hill coefficient nH [1, 4]: 1.07 ± 0.07

SMILES: COc1ccc2[nH]cc(CCN)c2c1 [5-MeOT]
- agonist activity on cAMP (human 5-HT4B receptor): potent agonists
- Hill coefficient nH [1]: 1.00 ± 0.03

SMILES: CC(C)C[C@H]1C(=O)N2CCC[C@H]2[C@]2(O)O[C@](NC(=O)[C@@H]3C=C4c5cccc6[nH]c(Br)c(c56)C[C@H]4N(C)C3)(C(C)C)C(=O)N12 [Bromocriptine]
- Hill coefficient nH [1]: 1.15
- Ki [1, 5]: 135 nM

SMILES: CN(C)CCc1c[nH]c2ccc(O)cc12 [Bufotenin]
- PERCENT INHIBITION of specific [3H]5-HT binding [1]: 40%

SMILES: CN1CCC(=C2c3ccccc3C=Cc3ccccc32)CC1 [Cyproheptadine]
- PERCENT INHIBITION of specific [3H]5-HT binding ([1]; competitor 30 nM, 5 nM [3H]5-HT, 30 min at 37° C.): 36%

SMILES: CCCN(CCC)CCc1c[nH]c2ccc(C(N)=O)cc12 [DP-5-CT]
- Hill coefficient nH [1]: 0.78
- Ki [1, 3]: 62 nM

SMILES: CCCN(CCC)C1CCc2cccc(O)c2C1 (centres unmarked) [DPAT]
- Hill coefficient nH [1, 4]: 0.76

SMILES: CN1C[C@H](C(=O)N[C@]2(C)O[C@@]3(O)[C@@H]4CCCN4C(=O)[C@H](Cc4ccccc4)N3C2=O)C[C@@H]2c3cccc4[nH]cc(c34)C[C@H]21 [Dihydroergotamine]
- Hill coefficient nH [1]: 1.36 ± 0.08
- Ki [1, 5]: 6 ± 0.2 nM
- Ki [1, 3]: 5 to 10 nM

SMILES: CN1C[C@H](C(=O)N[C@]2(C)O[C@@]3(O)[C@@H]4CCCN4C(=O)[C@H](Cc4ccccc4)N3C2=O)C=C2c3cccc4[nH]cc(c34)C[C@H]21 [Ergotamine]
- PERCENT INHIBITION of specific [3H]5-HT binding [1]: 79%

SMILES: Nc1nc2c(ncn2[C@@H]2O[C@H](COP(=O)(O)OP(=O)(O)NP(=O)(O)O)[C@@H](O)[C@H]2O)c(=O)[nH]1 [Gpp(NH)p, 5′-guanylylimidodiphosphate]
- reduction of high affinity [3H]5-HT binding [2]: 75%

SMILES: CN1[C@@H]2CC[C@H]1C[C@@H](OC(=O)c1c[nH]c3ccccc13)C2 [ICS 203930]
- inhibitory effect on the 5-HT cAMP response (human 5-HT4B receptor; 100 μM): weak inhibitory effect
- activity at the 5-HT4B receptor (human 5-HT4B receptor; discussion statement): either poorly active or inactive
- Ki ([1]; read-out: Apparent dissociation constant Ki, 5 nM [3H]5-HT, seven concentrations of competitor, 30 min at 37° C., Cheng-Prusoff, mean ± S.E.M. from 2-3 determinations): > 500 nM

SMILES: O=C(c1ccc(F)cc1)C1CCN(CCn2c(=O)[nH]c3ccccc3c2=O)CC1 [Ketanserin]
- Ki [1, 6]: > 100 nM
- PERCENT INHIBITION of specific [3H]5-HT binding [1, 7]: 17%

SMILES: CN1C[C@@H](NS(=O)(=O)N(C)C)C[C@@H]2c3cccc4c3c(cn4C)C[C@H]21 [Mesulergine]
- Hill coefficient nH [1, 4]: 1.09
- Ki [1, 6]: 9.6 nM

SMILES: CN1C[C@H](CNC(=O)OCc2ccccc2)C[C@@H]2c3cccc4c3c(cn4C)C[C@H]21 [Metergoline]
- antagonism of the 5-HT cAMP response (human 5-HT4B receptor; 10 μM): almost completely
- inhibition at 10 µM (human 5-HT4B receptor): 96 ± 1%
- Hill coefficient nH [1, 4]: 1.23
- Ki [1, 6]: 5.5 nM

SMILES: CC[C@@H](CO)NC(=O)[C@@H]1C=C2c3cccc4c3c(cn4C)C[C@H]2N(C)C1 [Methysergide]
- antagonism of the 5-HT cAMP response (human 5-HT4B receptor): almost completely
- inhibition at 10 µM (human 5-HT4B receptor): 82 ± 1.5%
- PERCENT INHIBITION of specific [3H]5-HT binding [1]: 51%

SMILES: Cc1nc2sccn2c(=O)c1CCN1CCC(=C(c2ccc(F)cc2)c2ccc(F)cc2)CC1 [Ritanserin]
- PERCENT INHIBITION of specific [3H]5-HT binding ([1]; competitor 10 nM, 5 nM [3H]5-HT, 30 min at 37° C.): 32%

SMILES: O=C(CCCN1CCC2(CC1)C(=O)NCN2c1ccccc1)c1ccc(F)cc1 [Spiperone]
- PERCENT INHIBITION of specific [3H]5-HT binding [1, 7]: 64%

SMILES: CNS(=O)(=O)Cc1ccc2[nH]cc(CCN(C)C)c2c1 [Sumatriptan]
- Hill coefficient nH [1, 4]: 0.88 ± 0.03
- Ki [1, 6]: 764 ± 29 nM

SMILES: NCCc1c[nH]c2ccccc12 [Tryptamine]
- PERCENT INHIBITION of specific [3H]5-HT binding [1]: 32%

SMILES: COc1cc(N)c(Cl)cc1C(=O)NC1CN2CCC1CC2 (centres unmarked) [Zacopride]
- activity at the 5-HT4B receptor (human 5-HT4B receptor; discussion statement): either poorly active or inactive
- Ki [1, 6]: > 500 nM
- PERCENT INHIBITION of specific [3H]5-HT binding [1, 7]: 0%

SMILES: COc1cc(N)c(Cl)cc1C(=O)NC1CCN(CCCOc2ccc(F)cc2)CC1OC (centres unmarked) [cisapride]
- activity at the 5-HT4B receptor (human 5-HT4B receptor; discussion statement): either poorly active or inactive
